Structures are written as SMILES. ≈ marks a conversion by molar mass, not a printed value.

What is called % Inhibition is the share of the control response that was lost under treatment.

Data set [1] concerns B-16 Melanoma tumors. In words: In vivo evaluation against B-16 Melanoma tumors in mice. As to conditions: IP, daily administration, days 1, 7.
The subject of data set [2] is C3H Mammary Adenocarcinoma tumors. In words: In vivo evaluation against C3H Mammary Adenocarcinoma tumors in mice. As to conditions: IP, daily administration, days 1, 4, 7, 10.
Data set [3] concerns CCRF-CEM. In words: IC50 in whole cell human leukemia cell lines, CCRF-CEM. The format is cell-based. As to conditions: read-out: IC₅₀. On the procedure: The IC₅₀ in whole cell human leukemia cell lines, CCRF-CEM, of N-[5-(2-{2-amino-4-hydroxy-5,6,7,8-tetrahydropyrido[2,3-d]pyrimidin-6-yl}ethyl)thien-2-ylcarbonyl]-L-glutamic acid is 0.0015 ug/mL. The IC₅₀ of N-[5-(2-{2-amino-4-hydroxy-5,6,7,8-tetrahydropyrido[2,3-d]pyrimidin-6-yl}ethyl)fur-2-ylcarbonyl]-L-glutamic acid is 0.010 ug/mL. The IC₅₀ of N-[4-(2-{2-amino-4-hydroxy-5,6,7,8-tetrahydropyrido[2,3-d]pyrimidin-6-yl}-ethyl)thien-2-ylcarbonyl]-L-glutamic acid is 0.0756 ug/mL.
The IC₅₀ in whole cell human leukemia cell lines, CCRF-CEM, of other compounds of this invention are as follows: […]

Data set [4] has as its system MX-1 Mammary Xenography. The data set can be described thus: In vivo evaluation against MX-1 Mammary Xenography in mice. To be noted: IP, daily administration, days 1, 4, 7, 10.
For data set [5], the system named is CX-1 Colon Xenography. In words: In vivo evaluation against CX-1 Colon Xenography in mice. As to conditions: IP, daily administration, days 1, 4, 7, 10.
For data set [6], the system named is LX-1 Lung Xenography. The data set can be described thus: In vivo evaluation against LX-1 Lung Xenography in mice. To be noted: IP, daily administration, days 1, 4, 7, 10.
For data set [7], the system named is CA-755 Adenocarcinoma tumors. In words: In vivo evaluation against CA-755 Adenocarcinoma tumors in mice. As to conditions: IP, daily administration, days 1, 4, 7, 10.
Data set [8] deals with 6C3HED lymphosarcoma tumors. The data set can be described thus: In vivo evaluation against 6C3HED lymphosarcoma tumors in mice. As to conditions: IP, daily administration.

Take `Nc1nc(O)c2c(n1)NCC(CCc1ccc(C(=O)N[C@@H](CCC(=O)O)C(=O)O)s1)C2` (stereo partly drawn) [N-[5-(2-{2-Amino-4-hydroxy-5,6,7,8-tetrahydropyrido[2,3-d]pyrimidin-6-yl}ethyl)thien-2-ylcarbonyl]-L-glutamic Acid]: the “% Inhibition” value in data set [1] (50 mg/kg) is given as 38%; in data set [1] (100 mg/kg), 73%; in data set [1] (200 mg/kg) it was 93%; in data set [2] (2.5 mg/kg), 71%; in data set [2] (5 mg/kg), 90%; in data set [2] (10 mg/kg), 94%. The “% Inhibition” value is 100% in data set [2] (20 mg/kg); 100% in data set [2] (40 mg/kg); 84% in data set [4] (5 mg/kg); 96% in data set [4] (10 mg/kg); “toxic” in data set [4] (20 mg/kg); “toxic” in data set [4] (40 mg/kg). Besides, the “% Inhibition” value in data set [5] (5 mg/kg) is 90%; in data set [5] (10 mg/kg) it was 94%; in data set [5] (20 mg/kg) it was 91%; in data set [5] (40 mg/kg), “toxic”; in data set [6] (10 mg/kg), 98%; in data set [6] (20 mg/kg), 100%. Besides, the “% Inhibition” value in data set [6] (40 mg/kg) is recorded as “toxic”; in data set [7] (20 mg/kg), 78%; in data set [7] (40 mg/kg), 83%; in data set [8] (0.78 mg/kg, 10 days), 93%; in data set [8] (1.56 mg/kg, 10 days) it was 100%; in data set [8] (3.12 mg/kg, 10 days) it was 100%. In addition, in data set [8] (6.25 mg/kg, 10 days), the “% Inhibition” value is listed as “toxic”. The Toxicity was 0/9 in data set [1] (50 mg/kg); 3/10 in data set [1] (100 mg/kg); 4/10 in data set [1] (200 mg/kg); 0/10 in data set [2] (2.5 mg/kg); 1/10 in data set [2] (5 mg/kg); 0/10 in data set [2] (10 mg/kg). Moreover, the Toxicity in data set [2] (20 mg/kg) is listed as 0/10; in data set [2] (40 mg/kg), 0/10; in data set [4] (5 mg/kg) it was 3/10; in data set [4] (10 mg/kg), 5/10; in data set [4] (20 mg/kg), 9/9; in data set [4] (40 mg/kg), 10/10. Also, the Toxicity in data set [5] (5 mg/kg) is 3/10; in data set [5] (10 mg/kg), 6/10; in data set [5] (20 mg/kg) it was 9/10; in data set [5] (40 mg/kg), 10/10; in data set [6] (10 mg/kg), 0/8; in data set [6] (20 mg/kg), 4/8. The Toxicity in data set [6] (40 mg/kg) was 8/8; in data set [7] (20 mg/kg) it was 0/10; in data set [7] (40 mg/kg), 0/10; in data set [8] (0.78 mg/kg, 10 days) it was 0/10; in data set [8] (1.56 mg/kg, 10 days), 0/10; in data set [8] (3.12 mg/kg, 10 days), 6/10. Further, in data set [8] (6.25 mg/kg, 10 days), the Toxicity is recorded as 10/10. The IC50 in data set [3] was 0.0015 µg/mL (≈ 0.00334 µM).

Turning to `Nc1nc(O)c2c(n1)NCC(CCCCCC(=O)N[C@@H](CCC(=O)O)C(=O)O)C2` (stereo partly drawn) [-(CH₂)₃-, N-[6-(2-Amino-4-hydroxy-5,6,7,8-tetrahydropyrido[2,3-d]pyrimidin-6-yl)hexanoyl]-L-glutamic Acid], the IC50 in data set [3] was 0.0075 µg/mL (≈ 0.0183 µM).

As to `Nc1nc(O)c2c(n1)NCC(CCc1csc(C(=O)N[C@@H](CCC(=O)O)C(=O)O)c1)C2` (stereo partly drawn) [N-[4-(2-{2-amino-4-hydroxy-5,6,7,8-tetrahydropyrido[2,3-d]pyrimidin-6-yl}ethyl)thien-2-ylcarbonyl]-L-glutamic acid], the IC50 in data set [3] turned out to be 0.0756 µg/mL (≈ 0.168 µM).

For the molecule `Nc1nc(O)c2c(n1)NCC(CCc1ccc(C(=O)N[C@@H](CCC(=O)O)C(=O)O)o1)C2` (stereo partly drawn) [N-[5-(2-{2-amino-4-hydroxy-5,6,7,8-tetrahydropyrido[2,3-d]pyrimidin-6-yl}ethyl)fur-2-ylcarbonyl]-L-glutamic acid], the IC50 in data set [3] was found to be 0.01 µg/mL (≈ 0.0231 µM). Also, the “% Inhibition” value in data set [8] (0.625 mg/kg, days 1, 4, 7) is recorded as 1%; in data set [8] (1.25 mg/kg, days 1, 4, 7) it was 29%; in data set [8] (2.5 mg/kg, days 1, 4, 7), 98%; in data set [8] (5 mg/kg, days 1, 4, 7), 97%; in data set [8] (10 mg/kg, days 1, 4, 7), 100%; in data set [8] (20 mg/kg, days 1, 4, 7), 100%. The “% Inhibition” value in data set [8] (25 mg/kg, eight days) was found to be 59%; in data set [8] (50 mg/kg, eight days) it was 69%; in data set [8] (100 mg/kg, eight days) it was 89%. For the same molecule, the Toxicity in data set [8] (0.625 mg/kg, days 1, 4, 7) is 0/10; in data set [8] (1.25 mg/kg, days 1, 4, 7), 0/10; in data set [8] (2.5 mg/kg, days 1, 4, 7) it was 0/10; in data set [8] (5 mg/kg, days 1, 4, 7) it was 0/10; in data set [8] (10 mg/kg, days 1, 4, 7) it was 0/10; in data set [8] (20 mg/kg, days 1, 4, 7), 0/10. Also, the Toxicity in data set [8] (25 mg/kg, eight days) is 0/10; in data set [8] (50 mg/kg, eight days) it was 0/10; in data set [8] (100 mg/kg, eight days), 0/10.

As for `Nc1nc(O)c2c(n1)NCC(CCC1CCC(C(=O)N[C@@H](CCC(=O)O)C(=O)O)CC1)C2` (stereo partly drawn) [N-{4-[2-(2-amino-4-hydroxy-5,6,7,8-tetrahydropyrido[2,3-d]pyrimidin-6-yl)ethyl]cyclohexylcarbonyl}-L-glutamic acid], the IC50 in data set [3] was found to be 0.007 µg/mL (≈ 0.0156 µM). The “% Inhibition” value in data set [8] (12.5 mg/kg, eight days) is given as 18%; in data set [8] (25 mg/kg, eight days) it was 4%; in data set [8] (50 mg/kg, eight days), 5%; in data set [8] (100 mg/kg, eight days), 22%. The Toxicity is 0/10 in data set [8] (12.5 mg/kg, eight days); 0/10 in data set [8] (25 mg/kg, eight days); 0/10 in data set [8] (50 mg/kg, eight days); 0/9 in data set [8] (100 mg/kg, eight days).

On to `Nc1nc(O)c2c(n1)NCC(CCCCCCC(=O)N[C@@H](CCC(=O)O)C(=O)O)C2` (stereo partly drawn) [-(CH₂)₄- CH₂-CH₂, N-[7-(2-Amino-4-hydroxy-5,6,7,8-tetrahydropyrido[2,3-d]pyrimidin-6-yl)heptanoyl]-L-glutamic acid], for which the IC50 in data set [3] stood at 0.034 µg/mL (≈ 0.0803 µM).

`Nc1nc(O)c2c(n1)NCC(CCCC(=O)N[C@@H](CCC(=O)O)C(=O)O)C2` (stereo partly drawn) [N-[4-(2-amino-4-hydroxy-5,6,7,8-tetrahydropyrido[2,3-d]pyrimidin-6-yl)butyryl]-L-glutamic acid]: the “% Inhibition” value came to 0% in data set [8] (3.12 mg/kg, eight days); 11% in data set [8] (6.25 mg/kg, eight days); 62% in data set [8] (12.5 mg/kg, eight days); 88% in data set [8] (25 mg/kg, eight days); 98% in data set [8] (50 mg/kg, eight days). For the same molecule, the Toxicity is recorded as 0/10 in data set [8] (3.12 mg/kg, eight days); 0/10 in data set [8] (6.25 mg/kg, eight days); 0/10 in data set [8] (12.5 mg/kg, eight days); 0/10 in data set [8] (25 mg/kg, eight days); 1/10 in data set [8] (50 mg/kg, eight days).

Take `Nc1nc(O)c2c(n1)NCC(CCCCC(=O)N[C@@H](CCC(=O)O)C(=O)O)C2` (stereo partly drawn) [-(CH₂)₂-, N-[5-(2-amino-4-hydroxy-5,6,7,8-tetrahydropyrido[2,3-d]pyrimidin-6-yl)pentanoyl]-L-glutamic acid]: the IC50 in data set [3] was determined as 0.023 µg/mL (≈ 0.0582 µM).
